Experimental data as given in patent publication US12480948B2, “Ratiometric fluorescent probe for detecting aminopeptidase N, and preparation method and use thereof” (Jilin University, priority 2022, dated 2025).
Blank lines part the entries; values can stand above or below the compound they belong to.

Tests used:
[1] = tested on: APN in HepG2 cells; assay: APAP-induced hepatotoxicity and hepatoprotective drugs in HepG2 cells, imaged with NB-APN; assay type: cell-based, human; details: for effect on the red fluorescence of HepG2 cells: drug 300 μM + APAP 1,000 μM + NB-APN 5 μM
Text: It has been reported that the excessive use of antipyretic analgesic acetaminophen (APAP) can cause drug-induced liver injury, during which process an APN concentration increases. The present disclosure also evaluates the performance of NB-APN in monitoring APN changes during APAP-induced acute hepatotoxicity and a drug treatment thereof. The NB-APN was used to evaluate the production of APN in APAP-stimulated cells. […] Furthermore, the NB-APN was used to study a relationship between the hepatotoxicity therapy and the APN level in living cells. Four drugs (NAC, GSH, TIO, and Glu) were investigated as anti-DILI hepatoprotective agents. […] This may be because the intake of GSH helps to improve the detoxification ability of the liver and reduce the damage of APAP to the liver. In addition, the western blot result was also consistent with the result of fluorescent imaging.

[2] = biological target: T1, APN in liver (Mus musculus, UniProt P97449); assay: In vivo imaging of APN activity in nude mice with DILI; design: species or system nude mouse; details: 300 mg/kg APAP intraperitoneal, 12 h after NB-APN tail vein injection
T1 construct: from tissue; host or cells: liver of nude mice, in vivo
T1 sequence (P97449 1-966): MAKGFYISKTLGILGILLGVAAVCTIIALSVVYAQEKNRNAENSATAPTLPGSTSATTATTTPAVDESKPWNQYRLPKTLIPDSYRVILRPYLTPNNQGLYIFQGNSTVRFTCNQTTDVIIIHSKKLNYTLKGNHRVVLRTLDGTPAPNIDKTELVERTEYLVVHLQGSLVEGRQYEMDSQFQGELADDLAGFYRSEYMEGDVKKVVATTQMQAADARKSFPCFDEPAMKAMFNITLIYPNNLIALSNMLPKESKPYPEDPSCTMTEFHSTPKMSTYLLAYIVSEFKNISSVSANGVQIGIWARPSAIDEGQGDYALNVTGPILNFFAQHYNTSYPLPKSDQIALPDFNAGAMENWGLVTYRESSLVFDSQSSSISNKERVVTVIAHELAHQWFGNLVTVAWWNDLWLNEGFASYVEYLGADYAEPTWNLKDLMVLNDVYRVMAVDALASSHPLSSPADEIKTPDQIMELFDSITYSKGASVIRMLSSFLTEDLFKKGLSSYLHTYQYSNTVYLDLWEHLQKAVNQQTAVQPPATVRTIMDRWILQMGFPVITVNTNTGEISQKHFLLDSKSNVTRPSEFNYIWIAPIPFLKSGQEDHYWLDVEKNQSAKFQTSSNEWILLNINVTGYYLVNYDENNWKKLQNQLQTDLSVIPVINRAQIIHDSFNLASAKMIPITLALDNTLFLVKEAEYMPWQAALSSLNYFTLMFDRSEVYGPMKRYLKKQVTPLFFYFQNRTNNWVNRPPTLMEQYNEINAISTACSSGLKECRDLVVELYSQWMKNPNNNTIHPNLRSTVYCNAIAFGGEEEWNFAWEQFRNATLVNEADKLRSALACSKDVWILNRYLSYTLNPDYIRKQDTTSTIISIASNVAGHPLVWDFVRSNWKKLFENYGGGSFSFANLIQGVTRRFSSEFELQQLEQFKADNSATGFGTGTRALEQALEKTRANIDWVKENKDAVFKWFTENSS
Protocol: The NB-APN was used to image the activity of APN in nude mice with DILI. Nude mice were intraperitoneally pre-injected with pH 7.4 PBS (control), and then injected with NB-APN through the tail vein. The background fluorescence signal of the nude mice was extremely low 6 h and 12 h after the NB-APN injection. […] In addition, the nude mouse with DILI was sacrificed, and the main organs (heart, liver, spleen, lung, and kidney) and the tumor were collected for imaging after 3 h of NB-APN pretreatment.

[3] = biological target: APN (Homo sapiens, UniProt P15144); assay: Inhibitor experiments with bestatin in the NB-APN + APN system; assay type: biochemical; details: bestatin 1 μM and 10 μM, APN 25 ng/mL, NB-APN 10 μM, 37° C., pH 7.4, 20 min
Chain of APN (P15144 whole entry, species assumed): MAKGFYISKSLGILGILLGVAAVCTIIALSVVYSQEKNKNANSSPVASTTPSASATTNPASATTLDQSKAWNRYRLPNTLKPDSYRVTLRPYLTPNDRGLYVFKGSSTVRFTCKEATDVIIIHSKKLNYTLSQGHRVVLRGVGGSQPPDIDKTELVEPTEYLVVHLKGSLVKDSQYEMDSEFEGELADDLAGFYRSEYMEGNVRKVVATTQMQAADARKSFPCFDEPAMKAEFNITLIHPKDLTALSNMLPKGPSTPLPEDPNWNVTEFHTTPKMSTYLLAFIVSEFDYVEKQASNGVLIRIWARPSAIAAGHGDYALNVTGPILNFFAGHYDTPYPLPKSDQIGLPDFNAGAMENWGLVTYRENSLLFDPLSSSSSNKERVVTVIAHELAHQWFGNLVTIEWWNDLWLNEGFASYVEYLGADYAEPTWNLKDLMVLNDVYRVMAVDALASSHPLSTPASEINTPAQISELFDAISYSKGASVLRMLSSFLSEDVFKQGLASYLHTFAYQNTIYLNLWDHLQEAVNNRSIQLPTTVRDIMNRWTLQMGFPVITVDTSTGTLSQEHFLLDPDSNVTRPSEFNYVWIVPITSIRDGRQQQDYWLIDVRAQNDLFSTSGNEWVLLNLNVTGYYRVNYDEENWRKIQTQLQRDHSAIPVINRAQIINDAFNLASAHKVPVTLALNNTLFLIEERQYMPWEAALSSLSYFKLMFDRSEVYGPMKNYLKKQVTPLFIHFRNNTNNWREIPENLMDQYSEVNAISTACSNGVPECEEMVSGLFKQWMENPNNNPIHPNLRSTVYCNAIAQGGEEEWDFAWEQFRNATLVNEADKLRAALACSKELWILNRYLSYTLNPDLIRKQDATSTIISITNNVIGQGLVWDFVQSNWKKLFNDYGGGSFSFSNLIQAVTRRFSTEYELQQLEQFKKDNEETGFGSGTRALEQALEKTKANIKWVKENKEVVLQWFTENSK
Protocol: Inhibitor experiments: a: NB-APN (10 μM); b: system (a)+APN (25 ng/mL); c: system (b)+bestatin (1 μM); and d: system (b)+bestatin (10 μM).
The influence of different concentrations of bestatin on the fluorescence ratio I675/I610 of 10 μM NB-APN (green) or 10 μM NB (red) was investigated, with λex=560 nm, 37° C., pH 7.4, 20 min.

[4] = biological target: T2, APN in liver cancer cells HepG2 (Homo sapiens, UniProt P15144); assay: Confocal ratiometric cell imaging of APN, HepG2; assay type: cell-based; details: HepG2, bestatin 100 μM pre-treatment 1 h, NB-APN 5 μM 30 min
T2 construct: after acting on HepG2 cells, indicating the existence of intrinsic APN; endogenous in cells; host or cells: HepG2
T2 sequence (P15144 whole entry): as the sequence (P15144 whole entry, species assumed) above
Protocol: (§1) The probe NB-APN was used for the imaging analysis of APN in liver cancer cells HepG2 and normal hepatocytes LO2. A confocal fluorescence microscope was adopted, and an excitation light source with a wavelength of 559 nm was adopted. The light emitted from a yellow channel (580 nm to 620 nm) and a red channel (660 nm to 700 nm) was collected. The HepG2 cells and LO2 cells were each pre-treated with bestatin (100 μM) for 1 h and then incubated with NB-APN (5 μM) for 30 min.

[5] = biological target: T3, APN in normal hepatocytes LO2 (Homo sapiens, UniProt P15144); assay: Confocal ratiometric cell imaging of APN, LO2; assay type: cell-based; details: LO2, bestatin 100 μM pre-treatment 1 h, NB-APN 5 μM 30 min
T3 construct: endogenous in cells; host or cells: LO2
T3 sequence (P15144 whole entry): as the sequence (P15144 whole entry, species assumed) above
Protocol: as §1

[6] = biological target: T4, APN in transplanted tumor (Homo sapiens, UniProt P15144); assay: In vivo fluorescent imaging of HepG2 tumor-transplanted nude mice; design: species or system nude mouse; details: 50 μL bestatin (100 μM) pre-injected 1 h before NB-APN
T4 construct: from tissue; host or cells: HepG2 xenograft tumour in nude mouse
T4 sequence (P15144 whole entry): as the sequence (P15144 whole entry, species assumed) above
Protocol: Transplanted tumors from two nude mice were respectively pre-injected with 50 μL of PBS (control) and bestatin (100 μM), and 1 h later, 50 μL of NB-APN (50 μM) was intratumorally injected. Imaging was conducted at different time points (0 h, 0.25 h, 0.5 h, 1.0 h, 2.0 h, and 4.0 h) after the NB-APN injection.
The intratumoral injection was adopted to study tumor imaging in a nude mouse liver cancer model under the red luminescence channel, and results are shown in FIG. 12. The fluorescence background of the nude mouse before the probe injection was very low. […] It can be considered accordingly that the fluorescence signal in a tumor is caused by the enzymatic activity of APN and thus the probe NB-APN can detect APN at a living organism level.

Compound: N[C@@H](CCC(=O)N[C@@H](CS)C(=O)NCC(=O)O)C(=O)O [GSH, glutathione]
anti-hepatotoxic effect with APN as hepatotoxicity index, compared ([1]; drug 300 μM + APAP 1,000 μM): better than that of NAC and Glu, but worse than that of TIO | effect on the red fluorescence of HepG2 cells [1]: obvious inhibitory effect

Compound: CC(=O)Nc1ccc(O)cc1 [APAP, acetaminophen]
liver fluorescence (APN expression) in nude mice [2]: strong fluorescence appeared in the liver | change of R value (APN level) with APAP concentration ([1]; HepG2, APAP 500 μM and 1,000 μM, NB-APN 5 μM): gradual increase in the R value

Compound: CC(=O)N[C@@H](CS)C(=O)O [NAC]
effect on the red fluorescence of HepG2 cells [1]: obvious inhibitory effect

effect on the fluorescence ratio signal I675/I610 of the NB-APN + APN system [3]: significant inhibitory effect | effect on intracellular fluorescence ratio R [4]: significantly reduced | effect on intracellular fluorescence ratio R [5]: significantly reduced | fluorescence signal at the tumor site compared with the group without inhibitor [6]: significantly weaker
Compound: CC(C)C[C@H](NC(=O)[C@@H](O)[C@H](N)Cc1ccccc1)C(=O)O [bestatin]

Compound: CC(S)C(=O)NCC(=O)O (stereo not shown) [TIO]
effect on the red fluorescence of HepG2 cells [1]: obvious inhibitory effect
